Data on one molecule can be found in US9089532B2, “Stable dosage form of phenylalanine derivatives” (Wilex AG, priority 2004, dated 2015).

What all share (assay type): physicochemical
A short description of data set [1]: Preliminary testing: solubility of WX-UK1 in solvents and solvent mixtures. As to conditions: in polyols, for example diols, and in mixtures of polyol/alcohol and water. An excerpt: Both solvents are additionally suitable for parenteral administration of active ingredients.
FIG. 1 is a Table showing the maximum solubility of WX-UK1 in various solvents and solvent mixtures.

Data set [2] in a line: Stability study at 40° C./75% RH of the unbuffered PG/EtOH/water formulation (impurity content, pH value). The settings on record: 40 mg/ml in PG/ethanol/water, stored at 40° C., 2-12 weeks. As for the experimental part: At the same time, the pH value of the formulation rose from 5.1 to 8.7 over a period of 12 weeks (FIG. 1).
0.4 ml of propylene glycol (PG) and 0.1 ml of ethanol were added in succession to 40 mg of WX-UK1. […] The remaining water (approx. 0.2 ml) was then added. The solution was then stored at 40° C. and the pH value and purity of the solution were in each case analysed after a period of 2, 4, 6, 8 and 12 weeks. To this end, 250 μl of the WX-UK1 solution were transferred into a 100 ml measuring flask and made up with water/acetonitrile (50:50 vol/vol) to the graduation mark (concentration: approx. 0.1 mg/ml of WX-UK1). 20 μl of this dilution were then analysed by means of a stability-indicating HPLC method analysed (see Annex). pH value-analysis of the WX-UK1 solution was carried out by means of a potentiometric method at 20-25° C.

Data set [3] is described as follows: pH-dependency of active ingredient breakdown at 60° C. As to conditions: ethanol/water 1:1, 60° C., up to 48 h. As to the method:
The pH-dependency of active ingredient breakdown (WX-UK1) was investigated at three different pH values with heat treatment at 60° C. by dissolving 2.5 mg of WX-UK1 in 1 ml of ethanol/water (1:1 vol/vol). This solution was aliquoted into three vessels. One aliquot was adjusted to pH 2 by addition of 20 μl of 1 N hydrochloric acid, a second aliquot was adjusted to pH 11 by addition of 20 μl of 2 N sodium hydroxide solution and the third aliquot was left at a neutral pH. After incubation, the solutions were analysed at defined points in time (0, 5, 12 and 48 h) by means of a stability-indicating HPLC method.

Data set [4] can be described thus: Stability of sodium acetate-buffered solutions of various molarities at 60° C. The settings on record: buffering the formulation with sodium acetate pH 5, 60° C., relative to unbuffered formulation. As to the method:
The stability study was carried out at 60° C. in order to achieve accelerated breakdown of WX-UK1 (FIG. 5). The WX-UK1 peak area percentage, determined by a stability-indicating HPLC method, was evaluated.

Data set [5] can be described thus: Earlier investigations: addition of phosphate buffer to WX-UK1 solutions.

With `CCOC(=O)N1CCN(C(=O)[C@H](Cc2cccc(C(=N)N)c2)NS(=O)(=O)c2c(C(C)C)cc(C(C)C)cc2C(C)C)CC1` [WX-UK1, Nα-(2,4,6-triisopropylphenylsulfonyl)-3-amidino-(L)-phenylalanine-4-ethoxycarbonylpiperazide], the solubility result in data set [1] is “very good solubility”. Also, the “breakdown in relation to pH value of the solution” value in data set [2] was “the higher is the pH value of the solution, the faster WX-UK1 breaks down”. Further, the “stability (breakdown, HPLC)” value is “remained stable” in data set [3] (acidic pH (pH 2)) and “moderate to rapid breakdown” in data set [3] (neutral or basic pH (pH 11)). In addition, in data set [4], the rate of breakdown result is “considerable reduction in the rate of breakdown”. For the same molecule, the precipitate formation entry in data set [5] was “formation of a precipitate”.
